Experimental data taken from ChEMBL document CHEMBL1150445, “A new galactosyl transferase inhibitor” (Bioorg Med Chem Lett, 1993).

Target: T1, Beta-1,4-galactosyltransferase 1 (Bos taurus, UniProt P08037)
T1 sequence (P08037 whole entry): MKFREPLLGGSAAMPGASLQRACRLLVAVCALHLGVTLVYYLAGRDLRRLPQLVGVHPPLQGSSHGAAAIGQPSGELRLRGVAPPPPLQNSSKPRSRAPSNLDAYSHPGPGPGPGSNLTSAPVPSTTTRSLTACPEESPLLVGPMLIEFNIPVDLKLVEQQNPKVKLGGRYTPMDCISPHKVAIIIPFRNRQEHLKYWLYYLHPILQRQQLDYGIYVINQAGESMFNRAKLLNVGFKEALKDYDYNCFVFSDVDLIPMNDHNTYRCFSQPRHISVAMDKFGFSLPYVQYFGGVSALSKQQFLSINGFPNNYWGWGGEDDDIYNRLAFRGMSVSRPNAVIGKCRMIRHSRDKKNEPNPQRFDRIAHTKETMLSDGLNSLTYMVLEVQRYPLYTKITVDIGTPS
Assay: Inhibition constant of compound was tested against Beta-galactosyltransferase from bovine milk

Structure (SMILES) | Ki [µM]
O=P(O)(O)CC1=CC(O)C(O)C(CO)O1 (stereo not given) | 1430
O=c1ccn(C2O[C@H](COP(=O)(O)OP(=O)(O)CC3=CC(O)C(O)C(CO)O3)[C@@H](O)[C@H]2O)c(=O)[nH]1 (stereo not given in full) | 62
O=c1ccn([C@@H]2O[C@H](COP(=O)(O)OP(=O)(O)OP(=O)(O)O)[C@@H](O)[C@H]2O)c(=O)[nH]1 [URIDINE TRIPHOSPHATE] | 128

More lines, now with the values ahead:

Ki [µM] | Structure (SMILES)
165 | O=c1ccn(C2O[C@H](COP(=O)(O)OP(=O)(O)C3OC(O)C(O)C(O)C3O)[C@@H](O)[C@H]2O)c(=O)[nH]1 (stereo not given in full)
96.9 | O=c1ccn(C2O[C@H](COP(=O)(O)CP(=O)(O)OC3OC(O)C(O)C(O)C3O)[C@@H](O)[C@H]2O)c(=O)[nH]1 (stereo not given in full)
